# Experimental data from patent US8614201B2 (Janssen Pharmaceutica NV, priority 2009, dated 2013).
# Target: Human TRPA1 (Homo sapiens, UniProt O75762)
# Experiment: Assay 1: In vitro cellular testing of TRPA1 modulation (CHO-TREx, Fluo-3 calcium fluorescence, AITC agonist)
# Type: cell-based
# Set-up: expressed in transfected cells; host or cells: CHO-TREx cells (Invitrogen), vector pcDNA4/TO
# Conditions: CHO-TREx cells expressing human TRPA1; Fluo-3 fluorescence (FLIPR/Tetra); agonist 15 μM allyl isothiocyanate (AITC); 30 minute antagonist incubation
# Experimental: Assay 1: In Vitro Cellular Testing of TRPA1 Modulation
# Human TRPA1 (NCBI accession number NM_007332.1) was cloned into pcDNA4/TO. CHO-TREx cells (Invitrogen, Carlsbad, Calif.) were stably transfected with pcDNA4/TO-TRPA1 using lipofection to generate a clonal cell line that expressed human TRPA1 in a tetracycline-inducible manner. Culture medium used was Ham's F-12 supplemented with 10% fetal bovine serum, 2 mM L-glutamine, 5 μg/ml blasticidin and 200 μg/ml zeocin. Cells were seeded in black-walled clear-bottom 96-well plates at a density of 50,000 cells per well and cultured overnight at 37° C. with 5% CO2 in culture medium supplemented with 1 μg/ml tetracycline. On the day of the experiment, cells were washed 3 times with HEPES buffered saline (in mM: NaCl 137, MgCl2 0.5, KCl 2, dextrose 5, CaCl2 2 and HEPES 10; pH 7.4). Cells were then loaded with calcium-sensitive fluorescent dye by incubation in the presence of 4 μM Fluo-3 AM (TefLabs, Austin, Tex.) at room temperature in the dark for 60 minutes. After incubation with dye, cells were washed in assay buffer and, if appropriate, antagonists were added at this time. Following a further 30 minute incubation, cells were assayed using a Fluorometric Imaging Plate Reader (FLIPR™) or a Tetra (both manufactured by Molecular Devices, CA) to simultaneously monitor Fluo-3 fluorescence in all wells (λexcitation=488 nm, λemission=540 nm). Changes in fluorescence were monitored for 3 minutes after the addition of 15 μM allyl isothiocyanate (AITC) as an agonist. Concentration-dependence of receptor blocking was determined by exposing each well of cells in duplicate rows of a 96-well plate to a serial dilution of test compound. The concentration series usually started at 10 μM with a three-fold serial decrement in concentration. The magnitude of the response to agonist challenge was determined by measuring the fluorescence before and 3 minutes after the addition of the agonist. The degree of blocking was determined by comparing the response to that of negative (no added antagonist) and positive (10 μM ruthenium red) control wells. Data were analyzed using a non-linear regression program (Origin; OriginLab, MA) to fit the concentration-response data to a Hill function. Antagonist potencies were determined as the concentration required to produce 50% reduction in the response as compared to the negative and positive controls.
# Chain of Human TRPA1 (O75762 whole entry): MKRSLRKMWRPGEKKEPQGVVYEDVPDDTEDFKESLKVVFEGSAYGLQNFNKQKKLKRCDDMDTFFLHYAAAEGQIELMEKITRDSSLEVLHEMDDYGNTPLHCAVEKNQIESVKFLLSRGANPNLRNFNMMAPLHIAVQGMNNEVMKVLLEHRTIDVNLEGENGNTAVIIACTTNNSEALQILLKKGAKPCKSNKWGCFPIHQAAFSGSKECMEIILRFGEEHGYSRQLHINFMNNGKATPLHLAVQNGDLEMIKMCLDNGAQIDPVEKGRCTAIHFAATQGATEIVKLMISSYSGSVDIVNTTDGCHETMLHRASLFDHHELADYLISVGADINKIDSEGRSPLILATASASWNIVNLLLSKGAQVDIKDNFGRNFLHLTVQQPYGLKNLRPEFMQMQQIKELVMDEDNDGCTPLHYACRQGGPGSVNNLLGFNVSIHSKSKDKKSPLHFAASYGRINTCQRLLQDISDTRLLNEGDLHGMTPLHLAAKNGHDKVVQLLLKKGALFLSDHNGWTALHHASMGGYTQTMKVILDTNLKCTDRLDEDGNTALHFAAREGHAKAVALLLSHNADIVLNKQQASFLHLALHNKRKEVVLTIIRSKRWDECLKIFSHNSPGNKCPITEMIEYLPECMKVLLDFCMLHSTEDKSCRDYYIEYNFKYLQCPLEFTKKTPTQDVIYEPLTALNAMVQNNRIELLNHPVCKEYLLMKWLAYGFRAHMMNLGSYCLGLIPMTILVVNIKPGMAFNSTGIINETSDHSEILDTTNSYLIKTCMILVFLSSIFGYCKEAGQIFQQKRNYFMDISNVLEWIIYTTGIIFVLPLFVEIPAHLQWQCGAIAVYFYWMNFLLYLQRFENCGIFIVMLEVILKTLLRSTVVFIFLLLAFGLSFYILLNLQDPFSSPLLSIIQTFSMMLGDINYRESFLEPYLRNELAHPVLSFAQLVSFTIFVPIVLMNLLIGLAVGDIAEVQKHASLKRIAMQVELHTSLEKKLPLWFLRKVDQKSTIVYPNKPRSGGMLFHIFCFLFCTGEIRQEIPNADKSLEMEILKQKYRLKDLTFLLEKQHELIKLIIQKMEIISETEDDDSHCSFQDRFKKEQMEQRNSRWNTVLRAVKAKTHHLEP
row,SMILES,IC50 [nM]
1,"CC(Nc1cc(CNC(=O)[C@@H]2CC(F)(F)CN2S(=O)(=O)c2ccc(Cl)s2)cc(-c2ccc(C(F)(F)F)cc2)n1)c1ccccn1 (stereo partly drawn) [Example 415, 1-[(5-Chlorothiophen-2-yl)sulfonyl]-4,4-difluoro-N-({2-[(1-pyridin-2-ylethyl)amino]-6-[4-(trifluoromethyl)phenyl]pyridin-4-yl}methyl)-L-prolinamide]",570
2,"CN(C)c1cc(CNC(=O)[C@@H]2CCCN2S(=O)(=O)c2ccc(F)cc2)cc(-c2ccc(C(F)(F)F)cc2)n1 [Example 331, N-({2-(Dimethylamino)-6-[4-(trifluoromethyl)phenyl]pyridin-4-yl}methyl)-1-[(4-fluorophenyl)sulfonyl]-L-prolinamide]",176
3,"CN(C)c1cc(CNC(=O)[C@@H]2C=CCN2S(=O)(=O)c2ccc(F)cc2)cc(-c2ccc(C(F)(F)F)cc2)n1 [Example 338, (2S)—N-({2-(Dimethylamino)-6-[4-(trifluoromethyl)phenyl]pyridin-4-yl}methyl)-1-[(4-fluorophenyl)sulfonyl]-2,5-dihydro-1H-pyrrole-2-carboxamide]",382
4,"O=C(NCc1cc(-c2ccc(C(F)(F)F)cc2)ccn1)[C@@H]1C=CCN1S(=O)(=O)c1ccc(Cl)s1 [Example 144, 1-(5-Chloro-thiophene-2-sulfonyl)-2,5-dihydro-1H-pyrrole-2S-carboxylic acid [4-(4-trifluoromethyl-phenyl)-pyridin-2-ylmethyl]-amide]",22
5,"O=C(NCc1cc(-c2ccc(C(F)(F)F)cc2)nc(N2CCC(Cc3ccccc3)CC2)n1)[C@@H]1CCCN1S(=O)(=O)c1ccc(F)cc1 [Example 189, 1-(4-Fluoro-benzenesulfonyl)-pyrrolidine-2S-carboxylic acid [2-(4-benzyl-piperidin-1-yl)-6-(4-trifluoromethyl-phenyl)-pyrimidin-4-ylmethyl]-amide]",2

# Results, then the compound that gave them:
row,IC50 [nM],SMILES
1,1020,"CN(C)[C@@H]1CCN(c2nc(CNC(=O)[C@@H]3CCCN3S(=O)(=O)c3ccc(Cl)s3)cc(-c3ccc(C(F)(F)F)cc3)n2)C1 [Example 32, 1-(5-Chloro-thiophene-2-sulfonyl)-pyrrolidine-2S-carboxylic acid [2-(3R-dimethylamino-pyrrolidin-1-yl)-6-(4-trifluoromethyl-phenyl)-pyrimidin-4-ylmethyl]-amide]"
2,1070,"O=C(NCc1cc(-c2ccc(C(F)(F)F)cc2)nc(N2CCN(Cc3ccccn3)CC2)c1)[C@@H]1C=CCN1S(=O)(=O)c1ccc(Cl)s1 [Example 354, (2S)-1-[(5-Chlorothiophen-2-yl)sulfonyl]-N-({2-[4-(pyridin-2-ylmethyl)piperazin-1-yl]-6-[4-(trifluoromethyl)phenyl]pyridin-4-yl}methyl)-2,5-dihydro-1H-pyrrole-2-carboxamide]"
3,42,"O=C(NCc1ccnc(-c2ccc(C(F)(F)F)cc2)c1)[C@@H]1C=CCN1S(=O)(=O)c1ccc(F)cc1 [Example 127, 1-(4-Fluorobenzenesulfonyl)-2,5-dihydro-1H-pyrrole-2S-carboxylic acid [2-(4-trifluoromethylphenyl)-pyridin-4-ylmethyl]-amide]"
4,746,"O=C(NCc1cccc(-c2ccccc2OC(F)(F)F)c1)[C@@H]1CCCN1S(=O)(=O)c1ccc(F)cc1 [Example 70, 1-(4-Fluorobenzenesulfonyl)-pyrrolidine-2S-carboxylic acid (2′-trifluoromethoxybiphenyl-3-ylmethyl)-amide]"
5,82,"CC1CCCN1c1cc(CNC(=O)[C@@H]2C=CCN2S(=O)(=O)c2ccc(Cl)s2)cc(-c2ccc(C(F)(F)F)cc2)n1 (stereo partly drawn) [Example 417, (2S)-1-[(5-Chlorothiophen-2-yl)sulfonyl]-N-({2-(2-methylpyrrolidin-1-yl)-6-[4-(trifluoromethyl)phenyl]pyridin-4-yl}methyl)-2,5-dihydro-1H-pyrrole-2-carboxamide]"
